Here are results for eight molecules from PMC8717171 (Saudi Journal of Biological Sciences, 2021).

Molecules are shown by their SMILES. Values after ≈ are worked out from the molar mass of the structure shown. Values joined by “and” are separate entries in the source; they are usually repeats but may differ in a detail not shown here. Equal entries are not always repeated. Where two headings read alike, the source gives them in different places.

Experiment [1] deals with non-enzymatic lipid peroxidation in rat brain homogenate. The experiment is described as follows: In-vitro lipid peroxidation inhibition. Particulars: Fe2+-ascorbate.
A further experiment has as its system rat hind paw oedema. The experiment is described as follows: Anti-inflammatory activity, carrageenan-induced rat hind paw oedema. In kind it is in vivo, Sprague Dawley rat. Particulars: test compounds 100 mg/kg; for Mean paw edema (volume in ml) ± SEM: n = 5. Background: In the carrageenan paw model, swelling and tenderness develop within hours.
The subject of a further experiment is mice. Put plainly: Peripheral anti-nociception, acetic acid-induced writhing. In kind it is in vivo, Mus musculus. Particulars: for Number of Writhing (Mean ± SEM): counted for 15 min, n = 5. On the technique in general: In writhing tests, fewer writhes than in controls are read as antinociception.
A short description of experiment [2]: Antioxidant activity, DPPH free radical scavenging. The format is biochemical. Particulars: absorbance at 517 nm. Background: DPPH is a stable violet radical that fades when it is reduced.
The subject of another experiment is Staphylococcus aureus. The experiment is described as follows: Disc diffusion. In kind it is cell-based. To be noted: standard Ciprofloxacin 5 µg/disc.
A further experiment concerns Swiss-albino mice. Particulars: mouse, in vivo, po; for Reaction time: 25 mg/kg.
In a further experiment the test system is Vibrio mimicus. Put plainly: Disc diffusion. In kind it is cell-based. To be noted: standard Ciprofloxacin 5 µg/disc.
The next experiment concerns Salmonella paratyphi. The experiment is described as follows: Disc diffusion. In kind it is cell-based. Particulars: standard Ciprofloxacin 5 µg/disc.
For another experiment, the system named is Shigella dysenteriae. Put plainly: Disc diffusion. In kind it is cell-based. Particulars: standard Ciprofloxacin 5 µg/disc.
A further experiment concerns Pseudomonas aeruginosa. Put plainly: Disc diffusion. The format is cell-based. Particulars: standard Ciprofloxacin 5 µg/disc.
Another experiment concerns Sarcina lutea. The experiment is described as follows: Disc diffusion. To be noted: standard Ciprofloxacin 5 µg/disc. The format is cell-based.
For a further experiment, the system named is Saccharomyces cerevisiae. The experiment is described as follows: Disc diffusion. In kind it is cell-based. Particulars: standard Ciprofloxacin 5 µg/disc.
The test system of another experiment is Candida albicans. The experiment is described as follows: Disc diffusion. To be noted: standard Ciprofloxacin 5 µg/disc. In kind it is cell-based.
For the next experiment, the system named is Shigella boydii. Put plainly: Disc diffusion. In kind it is cell-based. Particulars: standard Ciprofloxacin 5 µg/disc.
The next experiment deals with Bacillus megaterium. Put plainly: Disc diffusion. To be noted: standard Ciprofloxacin 5 µg/disc. The format is cell-based.
The subject of a further experiment is Salmonella typhi. The experiment is described as follows: Disc diffusion. The format is cell-based. Particulars: standard Ciprofloxacin 5 µg/disc.
The test system of a further experiment is Escherichia coli. The experiment is described as follows: Disc diffusion. To be noted: standard Ciprofloxacin 5 µg/disc. In kind it is cell-based.
A further experiment concerns Bacillus subtilis. The experiment is described as follows: Disc diffusion. In kind it is cell-based. Particulars: standard Ciprofloxacin 5 µg/disc.
The next experiment deals with Aspergillus niger. The experiment is described as follows: Disc diffusion. In kind it is cell-based. To be noted: standard Ciprofloxacin 5 µg/disc.
The next experiment relates to Vibrio parahaemolyticus. Put plainly: Disc diffusion. In kind it is cell-based. Particulars: standard Ciprofloxacin 5 µg/disc.
The next experiment has as its system Bacillus cereus. Put plainly: Disc diffusion. The format is cell-based. To be noted: standard Ciprofloxacin 5 µg/disc.
Another experiment has as its system microbial strains. The experiment is described as follows: Antimicrobial disc diffusion, all test strains together. The format is cell-based.
The target of a further experiment is butyrylcholinesterase (Rattus norvegicus, UniProt Q9JKC1). The experiment is described as follows: In-vitro anti-butyrylcholinesterase activity. The format is biochemical.
butyrylcholinesterase, sequence (Q9JKC1 24-597): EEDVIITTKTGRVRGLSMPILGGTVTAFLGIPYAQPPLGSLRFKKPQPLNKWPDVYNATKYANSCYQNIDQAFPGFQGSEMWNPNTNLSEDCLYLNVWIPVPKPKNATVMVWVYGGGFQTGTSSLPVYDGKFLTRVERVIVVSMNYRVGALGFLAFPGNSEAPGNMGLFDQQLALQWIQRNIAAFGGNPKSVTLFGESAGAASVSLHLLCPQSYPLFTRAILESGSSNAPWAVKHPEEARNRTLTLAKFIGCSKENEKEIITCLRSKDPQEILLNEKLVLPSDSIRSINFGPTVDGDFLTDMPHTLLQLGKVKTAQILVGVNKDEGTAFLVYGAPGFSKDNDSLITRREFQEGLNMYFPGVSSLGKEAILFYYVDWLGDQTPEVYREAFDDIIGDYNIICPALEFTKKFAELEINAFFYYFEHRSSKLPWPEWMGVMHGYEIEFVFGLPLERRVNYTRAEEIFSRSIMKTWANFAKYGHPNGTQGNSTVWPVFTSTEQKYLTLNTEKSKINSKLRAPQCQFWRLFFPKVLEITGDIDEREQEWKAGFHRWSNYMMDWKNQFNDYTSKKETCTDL
A further experiment concerns the target T1, acetylcholinesterase (Rattus norvegicus, UniProt P37136).
T1 sequence (P37136 32-614): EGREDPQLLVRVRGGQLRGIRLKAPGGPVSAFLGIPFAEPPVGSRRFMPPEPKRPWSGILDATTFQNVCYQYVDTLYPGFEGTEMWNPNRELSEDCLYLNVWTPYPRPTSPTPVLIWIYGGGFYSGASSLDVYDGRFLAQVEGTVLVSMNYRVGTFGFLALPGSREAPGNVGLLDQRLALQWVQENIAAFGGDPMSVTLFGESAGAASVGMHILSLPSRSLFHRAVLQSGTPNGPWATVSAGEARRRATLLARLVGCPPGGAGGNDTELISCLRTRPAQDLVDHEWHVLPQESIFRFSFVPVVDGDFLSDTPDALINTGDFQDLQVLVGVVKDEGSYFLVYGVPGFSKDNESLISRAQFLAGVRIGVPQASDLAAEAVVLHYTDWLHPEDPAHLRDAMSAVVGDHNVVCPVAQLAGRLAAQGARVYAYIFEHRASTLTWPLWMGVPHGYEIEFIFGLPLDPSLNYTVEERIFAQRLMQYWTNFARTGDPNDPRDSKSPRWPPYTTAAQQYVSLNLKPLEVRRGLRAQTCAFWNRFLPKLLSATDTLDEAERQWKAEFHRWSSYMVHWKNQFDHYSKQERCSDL
Put plainly: In-vitro anti-acetylcholinesterase activity. In kind it is biochemical.

Take `O.Oc1cc(O)c2c(c1)O[C@H](c1ccc(O)c(O)c1)[C@@H](O)C2` [Catechin, reference compound]: the “IC50 (lipid peroxidation inhibition)” value in [1] is 59.36 µg/mL.
As for `O=C(O)Cc1ccccc1Nc1c(Cl)cccc1Cl` [Diclofenac sodium, diclofenac sodium, reference compound], the “% Paw edema inhibition” value in the experiment on rat hind paw oedema (1st hour) is 23.73%; in the experiment on rat hind paw oedema (2nd hour), 31.15%; in the experiment with rat hind paw oedema (3rd hour), 38.93%; in the experiment on rat hind paw oedema (4th hour), 45.39%. Further, in the experiment with mice (standard diclofenac sodium, dose column 0.1 ml/10 g (method: 25 mg/kg)), the “% of Inhibition of Writhing” value is given as 91.79%.
As for `Cc1cc(C(C)(C)C)c(O)c(C(C)(C)C)c1` [BHT, tert-butyl-1-hydroxytoluene, reference compound], in experiment [2], the “IC50 (antioxidant activity, DPPH scavenging)” value stood at 14.44 µg/mL (≈ 65.5 µM).
As for `Clc1ccc(-c2nc3ccccc3[nH]2)cc1` [Compound 4, 2-(4-chlorophenyl)-1H-benzimidazole], the “Diameter of zone of inhibition (mm)” value in the experiment with Staphylococcus aureus is 0 mm; in the experiment with Vibrio mimicus, 0 mm; in the experiment on Salmonella paratyphi, 0 mm; in the experiment with Shigella dysenteriae it was 8 mm; in the experiment on Pseudomonas aeruginosa it was 8 mm; in the experiment with Sarcina lutea, 7 mm. In addition, the “Diameter of zone of inhibition (mm)” value stood at 9 mm in the experiment with Saccharomyces cerevisiae; 0 mm with Candida albicans; 9 mm in the experiment on Shigella boydii; 9 mm in the experiment on Bacillus megaterium; 9 mm in the experiment on Salmonella typhi; 10 mm in the experiment with Escherichia coli. For the same molecule, the “Diameter of zone of inhibition (mm)” value was determined as 9 mm in the experiment on Bacillus subtilis, 10 mm with Aspergillus niger, 7 mm in the experiment with Vibrio parahaemolyticus and 7 mm with Bacillus cereus. The Reaction time with Swiss-albino mice was 9.4 ± 0.93 and 8.8 ± 1.24 and 10.6 ± 0.68 and 12.6 ± 0.93. The “% Paw edema inhibition” value in the experiment with rat hind paw oedema (1st hour) was determined as 28.81%; in the experiment on rat hind paw oedema (2nd hour), 27.87%; in the experiment on rat hind paw oedema (3rd hour) it was 29.77%; in the experiment on rat hind paw oedema (4th hour), 36.88%. For the same molecule, the “Mean paw edema (volume in ml) ± SEM” value turned out to be 0.838 ± 0.051 mL in the experiment with rat hind paw oedema (1st hour), 0.88 ± 0.027 mL in the experiment with rat hind paw oedema (2nd hour), 0.92 ± 0.017 mL in the experiment on rat hind paw oedema (3rd hour) and 0.89 ± 0.033 mL in the experiment on rat hind paw oedema (4th hour). Also, the “IC50 (lipid peroxidation inhibition)” value in [1] is 98.55 µg/mL (≈ 431 µM). For the same molecule, in [2], the “IC50 (antioxidant activity, DPPH scavenging)” value was 114.18 µg/mL (≈ 499 µM). For the same molecule, the “% of Inhibition of Writhing” value with mice (25 mg/kg) was found to be 2.99%; in the experiment with mice (50 mg/kg), 13.81%. Moreover, the “peripheral analgesic activity (in words)” value in the experiment with mice (25 mg/kg and 50 mg/kg) is listed as “did not show any peripheral analgesic activity”. The entries for the “Number of Writhing (Mean ± SEM)” value in the experiment with mice (25 mg/kg) and with mice (50 mg/kg) were 26.0 ± 1.001 and 23.1 ± 0.843, respectively.
In the case of `COc1ccc(Cn2c(-c3ccc(OC)cc3)nc3ccccc32)cc1` [Compound 3c, 1-(4-methoxybenzyl)-2-(4-methoxyphenyl)-1H-benzimidazole], in the experiment on Swiss-albino mice, the Reaction time is 9.8 ± 0.86 and 10.2 ± 0.86 and 10.6 ± 0.68 and 11.8 ± 0.66. The “% Elongation value” in the experiment with Swiss-albino mice (50 mg/kg) is 42.86% and 44.19% and 50% and 44.23%. For the same molecule, the “% Paw edema inhibition” value in the experiment on rat hind paw oedema (1st hour) stood at 35.59%; in the experiment on rat hind paw oedema (2nd hour), 35.25%; with rat hind paw oedema (3rd hour) it was 37.40%; in the experiment on rat hind paw oedema (4th hour) it was 37.59%. For the same molecule, the “Mean paw edema (volume in ml) ± SEM” value in the experiment with rat hind paw oedema (1st hour) was 0.758 ± 0.035 mL; with rat hind paw oedema (2nd hour), 0.79 ± 0.043 mL; in the experiment on rat hind paw oedema (3rd hour) it was 0.82 ± 0.022 mL; in the experiment on rat hind paw oedema (4th hour) it was 0.88 ± 0.046 mL. Also, the “IC50 (antioxidant activity, DPPH scavenging)” value in [2] stood at 634.22 µg/mL (≈ 1840 µM). The results for the “% of Inhibition of Writhing” value in the experiment with mice (25 mg/kg) and in the experiment on mice (50 mg/kg) were 54.10% and 42.54%, respectively. In addition, the “Number of Writhing (Mean ± SEM)” value was 12.3 ± 0.831 in the experiment on mice (25 mg/kg) and 15.4 ± 0.697 with mice (50 mg/kg). In addition, the “antimicrobial activity (in words)” value in the experiment on microbial strains is reported as “did not show any antimicrobial activity”.
On to `Clc1ccc(Cn2c(-c3ccc(Cl)cc3)nc3ccccc32)cc1` [Compound 3b, 1-(4-chlorobenzyl)-2-(4-chlorophenyl)-1H-benzimidazole], for which the IC50 (in general, the point on the concentration scale where inhibition reaches its midpoint) at butyrylcholinesterase was 66.3 µM; at acetylcholinesterase, 187 µM. Further, the “% Paw edema inhibition” value in the experiment with rat hind paw oedema (1st hour) is listed as 38.98%; in the experiment with rat hind paw oedema (2nd hour), 40.16%; with rat hind paw oedema (3rd hour), 41.98%; with rat hind paw oedema (4th hour) it was 44.68%. Besides, the “Mean paw edema (volume in ml) ± SEM” value with rat hind paw oedema (1st hour) is 0.724 ± 0.057 mL; with rat hind paw oedema (2nd hour) it was 0.73 ± 0.029 mL; in the experiment on rat hind paw oedema (3rd hour), 0.76 ± 0.048 mL; with rat hind paw oedema (4th hour), 0.78 ± 0.056 mL. The “% of Inhibition of Writhing” value is on record as 26.87% with mice (25 mg/kg) and 13.43% in the experiment with mice (50 mg/kg). For the same molecule, the figures for the “Number of Writhing (Mean ± SEM)” value in the experiment with mice (25 mg/kg) and in the experiment with mice (50 mg/kg) were 19.6 ± 0.797 and 23.2 ± 0.464, respectively. In addition, the “antimicrobial activity (in words)” value in the experiment on microbial strains is given as “did not show any antimicrobial activity”.
On to `CN1CC[C@]23c4c5ccc(O)c4O[C@H]2[C@@H](O)C=C[C@H]3[C@H]1C5` [morphine, Morphine, reference compound], for which, in the experiment on Swiss-albino mice, the “% Elongation value” is 48.08% and 82.5%.
Regarding `Oc1ccc(Cn2c(-c3ccc(O)cc3)nc3ccccc32)cc1` [Compound 3a, 1-(4-hydroxybenzyl)-2-(4-hydroxyphenyl)-1H-benzimidazole], the IC50 against butyrylcholinesterase is 49.1 µM; against acetylcholinesterase, 231 µM. Also, the “% Paw edema inhibition” value in the experiment on rat hind paw oedema (1st hour) stood at 34.75%; in the experiment on rat hind paw oedema (2nd hour) it was 36.07%; with rat hind paw oedema (3rd hour), 38.93%; in the experiment with rat hind paw oedema (4th hour) it was 37.59%. Besides, the “Mean paw edema (volume in ml) ± SEM” value in the experiment with rat hind paw oedema (1st hour) came to 0.768 ± 0.0575 mL; with rat hind paw oedema (2nd hour), 0.78 ± 0.023 mL; in the experiment on rat hind paw oedema (3rd hour), 0.80 ± 0.043 mL; in the experiment with rat hind paw oedema (4th hour), 0.88 ± 0.034 mL. In experiment [1], the “IC50 (lipid peroxidation inhibition)” value amounted to 75.53 µg/mL (≈ 239 µM). In experiment [2], the “IC50 (antioxidant activity, DPPH scavenging)” value is 16.73 µg/mL (≈ 52.9 µM). For the same molecule, the “% of Inhibition of Writhing” value in the experiment with mice (25 mg/kg) was found to be 49.25%; in the experiment on mice (50 mg/kg), 29.10%. Moreover, the “Number of Writhing (Mean ± SEM)” value in the experiment with mice (25 mg/kg) stood at 13.6 ± 0.430; in the experiment on mice (50 mg/kg), 19.0 ± 1.649. Also, the “antimicrobial activity (in words)” value in the experiment with microbial strains is on record as “did not show any antimicrobial activity”.
